Experiments:
Assay type in all cases: cell-based
p21 = assay: Western blot, MDA-MB-231 cells, 24 hours; conditions: 2.5, 5, 10 μM, versus Comparator 1, 2 and 4
GSKIP = target: T1, GSKIP (Homo sapiens, UniProt Q9P0R6); assay: CETSA-MS, MDA-MB-231 intact cells; conditions: 2 μM and 20 μM
T1 construct: 148 targets unique to Compound 1 in MDA-MB-231 intact cells; endogenous in cells; host or cells: MDA-MB-231
Summary of the method: (§1)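 MS-based cellular thermal shift in live MDA-MB-231: incubate, heat across gradient, lyse, keep soluble fraction, precipitate, digest, label, run proteomics.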

GCAT = target: T2, GCAT (Homo sapiens, UniProt O75600); assay: CETSA-MS, MDA-MB-231 intact cells; conditions: 2 μM and 20 μM
T2 construct: 148 targets unique to Compound 1 in MDA-MB-231 intact cells; endogenous in cells; host or cells: MDA-MB-231
T2 sequence (O75600 22-419): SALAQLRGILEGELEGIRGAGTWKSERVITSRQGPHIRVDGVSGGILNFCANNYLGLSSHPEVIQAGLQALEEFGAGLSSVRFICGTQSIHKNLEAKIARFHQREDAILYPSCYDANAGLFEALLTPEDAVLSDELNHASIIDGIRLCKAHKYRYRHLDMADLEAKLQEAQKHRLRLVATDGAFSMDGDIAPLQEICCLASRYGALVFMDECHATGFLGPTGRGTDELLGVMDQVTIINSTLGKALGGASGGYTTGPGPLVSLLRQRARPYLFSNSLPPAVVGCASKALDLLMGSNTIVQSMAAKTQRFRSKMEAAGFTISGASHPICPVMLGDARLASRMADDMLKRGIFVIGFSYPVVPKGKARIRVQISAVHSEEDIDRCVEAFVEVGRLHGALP
Summary of the method: as §1

COL2A1 = target: T3, COL2A1 (Homo sapiens, UniProt P02458); assay: CETSA-MS, MDA-MB-231 intact cells; conditions: 2 μM and 20 μM
T3 construct: endogenous in cells; host or cells: MDA-MB-231
T3 sequence (P02458 182-1487): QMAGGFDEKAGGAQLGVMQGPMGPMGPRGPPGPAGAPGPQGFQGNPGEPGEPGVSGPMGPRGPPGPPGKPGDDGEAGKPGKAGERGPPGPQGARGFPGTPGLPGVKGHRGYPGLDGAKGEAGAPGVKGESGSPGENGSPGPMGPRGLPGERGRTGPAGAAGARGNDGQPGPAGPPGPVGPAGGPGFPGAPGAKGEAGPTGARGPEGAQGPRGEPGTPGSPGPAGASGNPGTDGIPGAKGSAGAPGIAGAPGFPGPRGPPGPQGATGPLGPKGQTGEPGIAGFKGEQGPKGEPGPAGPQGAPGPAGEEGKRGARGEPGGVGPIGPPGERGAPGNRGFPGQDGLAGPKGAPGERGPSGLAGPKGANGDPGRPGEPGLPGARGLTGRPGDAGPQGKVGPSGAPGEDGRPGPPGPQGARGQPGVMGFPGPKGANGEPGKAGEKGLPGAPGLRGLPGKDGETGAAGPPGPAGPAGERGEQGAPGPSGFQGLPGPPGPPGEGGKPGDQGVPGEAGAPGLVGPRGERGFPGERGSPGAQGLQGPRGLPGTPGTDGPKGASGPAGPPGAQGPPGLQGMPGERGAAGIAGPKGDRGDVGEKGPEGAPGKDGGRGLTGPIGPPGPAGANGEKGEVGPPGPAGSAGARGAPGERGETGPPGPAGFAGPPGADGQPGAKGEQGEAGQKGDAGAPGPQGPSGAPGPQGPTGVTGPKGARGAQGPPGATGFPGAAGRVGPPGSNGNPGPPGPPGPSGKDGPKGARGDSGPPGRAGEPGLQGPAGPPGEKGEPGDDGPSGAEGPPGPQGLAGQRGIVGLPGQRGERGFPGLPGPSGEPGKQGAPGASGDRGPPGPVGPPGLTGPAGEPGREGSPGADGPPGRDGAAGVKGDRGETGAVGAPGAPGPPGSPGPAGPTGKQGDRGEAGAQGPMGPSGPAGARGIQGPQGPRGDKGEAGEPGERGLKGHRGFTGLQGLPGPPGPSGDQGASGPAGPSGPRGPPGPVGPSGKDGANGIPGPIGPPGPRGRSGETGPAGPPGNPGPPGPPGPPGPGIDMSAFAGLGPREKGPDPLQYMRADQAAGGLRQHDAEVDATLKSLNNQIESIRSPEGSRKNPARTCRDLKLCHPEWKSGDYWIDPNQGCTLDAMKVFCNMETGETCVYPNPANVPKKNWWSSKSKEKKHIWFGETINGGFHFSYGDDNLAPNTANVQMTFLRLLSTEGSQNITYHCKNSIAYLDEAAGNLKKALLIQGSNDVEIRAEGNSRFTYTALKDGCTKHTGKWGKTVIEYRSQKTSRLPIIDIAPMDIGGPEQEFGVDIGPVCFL
Summary of the method: as §1

CDK17 = target: T4, CDK17 (Homo sapiens, UniProt Q00537); assay: CETSA-MS, MDA-MB-231 intact cells; conditions: 2 μM and 20 μM
T4 construct: endogenous in cells; host or cells: MDA-MB-231
Summary of the method: as §1

SMU1 = target: T5, SMU1 (Homo sapiens, UniProt Q2TAY7); assay: CETSA-MS, MDA-MB-231 intact cells; conditions: 2 μM and 20 μM
T5 construct: endogenous in cells; host or cells: MDA-MB-231
Summary of the method: as §1

AGRN = target: T6, AGRN (Homo sapiens, UniProt O00468); assay: CETSA-MS, MDA-MB-231 intact cells; conditions: 2 μM and 20 μM
T6 construct: endogenous in cells; host or cells: MDA-MB-231
Summary of the method: as §1

LRCH4 = target: T7, LRCH4 (Homo sapiens, UniProt O75427); assay: CETSA-MS, MDA-MB-231 intact cells; conditions: 2 μM and 20 μM
T7 construct: endogenous in cells; host or cells: MDA-MB-231
Summary of the method: as §1

RIPK 1 = target: T8, RIPK 1 (Homo sapiens, UniProt Q13546); assay: CETSA-MS, MDA-MB-231 intact cells; conditions: 2 μM and 20 μM
T8 construct: endogenous in cells; host or cells: MDA-MB-231
T8 sequence (Q13546 whole entry): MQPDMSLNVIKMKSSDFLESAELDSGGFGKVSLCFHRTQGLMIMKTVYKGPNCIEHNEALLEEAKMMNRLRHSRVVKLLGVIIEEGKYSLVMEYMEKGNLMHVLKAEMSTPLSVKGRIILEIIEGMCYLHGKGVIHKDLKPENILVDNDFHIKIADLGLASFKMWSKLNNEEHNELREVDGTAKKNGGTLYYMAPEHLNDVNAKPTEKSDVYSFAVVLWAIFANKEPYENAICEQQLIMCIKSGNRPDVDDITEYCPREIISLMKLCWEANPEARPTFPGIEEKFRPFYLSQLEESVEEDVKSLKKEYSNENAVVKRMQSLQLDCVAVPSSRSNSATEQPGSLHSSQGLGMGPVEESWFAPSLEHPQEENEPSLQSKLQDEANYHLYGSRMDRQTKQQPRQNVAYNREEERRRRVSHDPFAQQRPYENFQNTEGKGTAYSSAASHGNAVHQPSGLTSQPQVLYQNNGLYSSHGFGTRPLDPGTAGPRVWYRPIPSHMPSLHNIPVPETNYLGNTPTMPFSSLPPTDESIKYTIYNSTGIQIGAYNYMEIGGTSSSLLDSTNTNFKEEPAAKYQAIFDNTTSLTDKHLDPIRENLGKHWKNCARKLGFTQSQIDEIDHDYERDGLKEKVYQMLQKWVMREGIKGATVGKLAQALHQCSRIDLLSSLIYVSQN
Summary of the method: as §1

ADAR = target: T9, ADAR (Homo sapiens, UniProt P55265); assay: CETSA-MS, MDA-MB-231 intact cells; conditions: 2 μM and 20 μM
T9 construct: endogenous in cells; host or cells: MDA-MB-231
Summary of the method: as §1

LTBP2 = target: T10, LTBP2 (Homo sapiens, UniProt Q14767); assay: CETSA-MS, MDA-MB-231 intact cells; conditions: 2 μM and 20 μM
T10 construct: endogenous in cells; host or cells: MDA-MB-231
Summary of the method: as §1

LAMTOR2 = target: T11, LAMTOR2 (Homo sapiens, UniProt Q9Y2Q5); assay: CETSA-MS, MDA-MB-231 intact cells; conditions: 2 μM and 20 μM
T11 construct: endogenous in cells; host or cells: MDA-MB-231
T11 sequence (Q9Y2Q5 whole entry): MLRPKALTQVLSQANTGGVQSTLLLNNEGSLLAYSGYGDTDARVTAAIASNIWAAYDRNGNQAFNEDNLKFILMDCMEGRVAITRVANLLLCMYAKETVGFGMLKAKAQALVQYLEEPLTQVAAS
Summary of the method: as §1

HSPA13 = target: T12, HSPA13 (Homo sapiens, UniProt P48723); assay: CETSA-MS, MDA-MB-231 intact cells; conditions: 2 μM and 20 μM
T12 construct: endogenous in cells; host or cells: MDA-MB-231
T12 sequence (P48723 23-471): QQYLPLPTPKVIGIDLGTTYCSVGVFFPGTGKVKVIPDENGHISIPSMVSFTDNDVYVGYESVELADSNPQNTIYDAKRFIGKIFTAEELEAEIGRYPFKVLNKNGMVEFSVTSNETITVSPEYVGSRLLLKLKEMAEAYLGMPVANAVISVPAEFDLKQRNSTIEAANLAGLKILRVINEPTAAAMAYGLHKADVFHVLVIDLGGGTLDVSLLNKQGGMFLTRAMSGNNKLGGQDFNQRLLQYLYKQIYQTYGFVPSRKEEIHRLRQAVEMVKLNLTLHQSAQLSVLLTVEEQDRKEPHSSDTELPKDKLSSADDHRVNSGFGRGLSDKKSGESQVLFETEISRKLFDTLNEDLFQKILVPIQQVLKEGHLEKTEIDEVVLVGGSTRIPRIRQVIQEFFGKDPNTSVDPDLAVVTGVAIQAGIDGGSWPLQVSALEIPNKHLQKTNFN
Summary of the method: as §1

UFL1 = target: T13, UFL1 (Homo sapiens, UniProt O94874); assay: CETSA-MS, MDA-MB-231 intact cells; conditions: 2 μM and 20 μM
T13 construct: endogenous in cells; host or cells: MDA-MB-231
Summary of the method: as §1

HNRNPC = target: T14, HNRNPC (Homo sapiens, UniProt P07910); assay: CETSA-MS, MDA-MB-231 intact cells; conditions: 2 μM and 20 μM
T14 construct: 148 targets unique to Compound 1 in MDA-MB-231 intact cells; endogenous in cells; host or cells: MDA-MB-231
T14 sequence (P07910 whole entry): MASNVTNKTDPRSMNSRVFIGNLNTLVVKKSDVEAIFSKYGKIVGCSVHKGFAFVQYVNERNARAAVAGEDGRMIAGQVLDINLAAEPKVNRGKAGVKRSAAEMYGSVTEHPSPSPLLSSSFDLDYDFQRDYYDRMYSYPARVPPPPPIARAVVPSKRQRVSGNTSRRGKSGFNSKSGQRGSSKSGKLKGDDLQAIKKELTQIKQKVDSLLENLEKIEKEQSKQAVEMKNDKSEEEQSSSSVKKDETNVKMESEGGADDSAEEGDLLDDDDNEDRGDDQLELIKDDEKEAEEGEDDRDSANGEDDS
Summary of the method: as §1

APP = target: T15, APP (Homo sapiens, UniProt P05067); assay: CETSA-MS, MDA-MB-231 intact cells; conditions: 2 μM and 20 μM
T15 construct: endogenous in cells; host or cells: MDA-MB-231
Summary of the method: as §1

SART3 = target: T16, SART3 (Homo sapiens, UniProt Q15020); assay: CETSA-MS, MDA-MB-231 intact cells; conditions: 2 μM and 20 μM
T16 construct: endogenous in cells; host or cells: MDA-MB-231
Summary of the method: as §1

RRAS2 = target: T17, RRAS2 (Homo sapiens, UniProt P62070); assay: CETSA-MS, MDA-MB-231 intact cells; conditions: 2 μM and 20 μM
T17 construct: endogenous in cells; host or cells: MDA-MB-231
Summary of the method: as §1

MRPL55 = target: T18, MRPL55 (Homo sapiens, UniProt Q7Z7F7); assay: CETSA-MS, MDA-MB-231 intact cells; conditions: 2 μM and 20 μM
T18 construct: endogenous in cells; host or cells: MDA-MB-231
Summary of the method: as §1

MRC2 = target: T19, MRC2 (Homo sapiens, UniProt Q9UBG0); assay: CETSA-MS, MDA-MB-231 intact cells; conditions: 2 μM and 20 μM
T19 construct: endogenous in cells; host or cells: MDA-MB-231
T19 sequence (Q9UBG0 31-1479): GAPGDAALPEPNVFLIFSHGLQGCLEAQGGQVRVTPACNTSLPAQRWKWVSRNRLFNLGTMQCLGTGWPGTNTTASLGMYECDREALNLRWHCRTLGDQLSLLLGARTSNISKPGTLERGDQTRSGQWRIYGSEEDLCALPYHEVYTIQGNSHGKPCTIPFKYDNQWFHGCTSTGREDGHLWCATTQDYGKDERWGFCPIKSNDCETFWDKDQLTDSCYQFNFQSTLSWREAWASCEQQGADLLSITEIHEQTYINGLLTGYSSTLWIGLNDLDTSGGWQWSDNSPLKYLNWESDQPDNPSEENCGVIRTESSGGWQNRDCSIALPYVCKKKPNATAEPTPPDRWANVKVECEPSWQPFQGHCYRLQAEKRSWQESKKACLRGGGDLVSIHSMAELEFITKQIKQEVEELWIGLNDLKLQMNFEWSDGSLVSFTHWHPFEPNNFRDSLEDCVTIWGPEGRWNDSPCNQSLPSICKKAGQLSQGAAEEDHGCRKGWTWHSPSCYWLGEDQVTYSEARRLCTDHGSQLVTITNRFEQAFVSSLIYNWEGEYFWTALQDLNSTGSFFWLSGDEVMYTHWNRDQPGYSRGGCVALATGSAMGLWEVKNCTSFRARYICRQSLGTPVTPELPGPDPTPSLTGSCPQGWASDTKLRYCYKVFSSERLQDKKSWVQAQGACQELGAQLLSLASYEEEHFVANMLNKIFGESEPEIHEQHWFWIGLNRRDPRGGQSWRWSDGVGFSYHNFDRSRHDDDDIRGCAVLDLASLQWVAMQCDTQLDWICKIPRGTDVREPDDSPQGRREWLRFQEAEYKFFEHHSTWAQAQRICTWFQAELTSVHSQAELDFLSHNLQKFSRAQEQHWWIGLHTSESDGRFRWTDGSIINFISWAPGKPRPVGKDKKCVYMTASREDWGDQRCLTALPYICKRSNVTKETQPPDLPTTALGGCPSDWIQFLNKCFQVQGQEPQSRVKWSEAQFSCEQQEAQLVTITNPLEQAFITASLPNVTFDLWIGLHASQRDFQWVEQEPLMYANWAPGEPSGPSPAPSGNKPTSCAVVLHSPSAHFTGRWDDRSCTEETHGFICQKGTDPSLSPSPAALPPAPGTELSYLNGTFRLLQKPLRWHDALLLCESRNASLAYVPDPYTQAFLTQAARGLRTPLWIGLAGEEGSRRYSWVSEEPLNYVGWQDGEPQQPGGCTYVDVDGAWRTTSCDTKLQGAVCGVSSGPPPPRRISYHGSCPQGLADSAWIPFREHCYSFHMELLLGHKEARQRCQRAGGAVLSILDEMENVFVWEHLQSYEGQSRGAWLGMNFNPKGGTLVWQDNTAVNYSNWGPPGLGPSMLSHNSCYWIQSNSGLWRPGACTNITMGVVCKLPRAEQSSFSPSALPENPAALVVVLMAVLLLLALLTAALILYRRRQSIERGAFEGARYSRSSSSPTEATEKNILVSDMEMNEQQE
Summary of the method: as §1

PIP4P2 = target: T20, PIP4P2 (Homo sapiens, UniProt Q8N4L2); assay: CETSA-MS, MDA-MB-231 intact cells; conditions: 2 μM and 20 μM
T20 construct: endogenous in cells; host or cells: MDA-MB-231
T20 sequence (Q8N4L2 whole entry): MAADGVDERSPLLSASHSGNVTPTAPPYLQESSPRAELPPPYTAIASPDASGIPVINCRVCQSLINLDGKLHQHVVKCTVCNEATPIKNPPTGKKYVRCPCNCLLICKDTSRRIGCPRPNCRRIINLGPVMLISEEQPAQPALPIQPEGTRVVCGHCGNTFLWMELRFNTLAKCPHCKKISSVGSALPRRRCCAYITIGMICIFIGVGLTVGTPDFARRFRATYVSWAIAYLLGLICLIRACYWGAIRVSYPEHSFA
Summary of the method: as §1

MAP2K5 = target: T21, MAP2K5 (Homo sapiens, UniProt Q13163); assay: CETSA-MS, MDA-MB-231 intact cells; conditions: 2 μM and 20 μM
T21 construct: endogenous in cells; host or cells: MDA-MB-231
Summary of the method: as §1

pRb = assay: Western blot, MDA-MB-231 cells, 24 hours; conditions: 2.5, 5, 10 μM, versus Comparator 1, 2 and 4

Structure (SMILES): CN1CCN(c2ccc(Nc3ncc4cc(C#N)c(=O)n(C5CCCC5)c4n3)cc2)CC1 [Compound 1, 8-cyclopentyl-2-((4-(4-methylpiperazin-1-yl)phenyl)amino)-7-oxo-7,8-dihydropyrido[2,3-d]pyrimidine-6-carbonitrile]
- p21 levels (p21): decreasing
- Group (CETSA-MS thermal shift) (GSKIP): Stabilization
- Group (CETSA-MS thermal shift) (GCAT): Stabilization
- Group (CETSA-MS thermal shift) (COL2A1): Stabilization
- Group (CETSA-MS thermal shift) (CDK17): Stabilization
- Group (CETSA-MS thermal shift) (SMU1): Stabilization
- Group (CETSA-MS thermal shift) (AGRN): Stabilization
- Group (CETSA-MS thermal shift) (LRCH4): Stabilization
- Group (CETSA-MS thermal shift) (RIPK 1): Stabilization
- Group (CETSA-MS thermal shift) (ADAR): Stabilization
- Group (CETSA-MS thermal shift) (LTBP2): Stabilization
- Group (CETSA-MS thermal shift) (LAMTOR2): Stabilization
- Group (CETSA-MS thermal shift) (HSPA13): Stabilization
- Group (CETSA-MS thermal shift) (UFL1): Stabilization
- Group (CETSA-MS thermal shift) (HNRNPC): Stabilization
- Group (CETSA-MS thermal shift) (APP): Stabilization
- Group (CETSA-MS thermal shift) (SART3): Destabilization
- Group (CETSA-MS thermal shift) (RRAS2): Stabilization
- Group (CETSA-MS thermal shift) (MRPL55): Stabilization
- Group (CETSA-MS thermal shift) (MRC2): Stabilization
- Group (CETSA-MS thermal shift) (PIP4P2): Stabilization
- Group (CETSA-MS thermal shift) (MAP2K5): Destabilization
- pRb levels (pRb): decreasing

From patent US20260183295A1, “METHODS AND COMPOSITIONS FOR TREATING CANCER” (Onconova Therapeutics, Inc., priority 2022, published 2026)
